Read-outs that look alike come from different tables or passages of the source.
How the values were obtained:
[1] = test system: LPS induced TNF-α production by human leucocytes (PBMC); experiment: Inhibition of LPS induced TNF-a production by human leucocytes in vitro (experimental setup 1); assay type: cell-based; conditions: human leucocyte suspension
Method: Inhibition of LPS Induced TNF-a Production by Human Leucocytes In Vitro
20 mL human blood is collected in vacutainer tubes containing EDTA. PBMC is isolated using Ficoll-Paque Plus as in Amersham's Instruction 71-7167-00 AD, 2002-06. PBMC is counted using Tryphan Blue Solution (Sigma) and incubated in RPMI 1640, (Applichem), supplemented with 10 mM Hepes (Sigma), 2 mM L-glutamin (Sigma), 0.1% BSA (Sigma) and 50U/50 μg/mL Penicillin/Streptomycin (Sigma) in the concentration 5×10^5 cells/mL. The isolated PBMC is incubated in a humidified 5% CO2, 95% air atmosphere, at 37° C., in 24 well flat-bottomed plates (Corning Incorporated) with medium, 10 ng LPS/mL (Sigma), and test compound. After 18 hours the samples are centrifuged, and TNF-α in the supernatants is measured using Tumour Necrosis Factor Alpha [(h)TNF-α] from Human Biotrak ELISA System (Amersham).
The samples are incubated as following per donor: • PBMC's in RPMI (Time Control) • PBMC's with 10 ng LPS/mL (Vehicle) • PBMC's, 10 ng LPS/mL, 10^−17M a-MSH or a-MSH analogue • PBMC's, 10 ng LPS/mL, 10^−15M a-MSH or a-MSH analogue • PBMC's, 10 ng LPS/mL, 10^−13M a-MSH or a-MSH analogue • PBMC's, 10 ng LPS/mL, 10^−11M a-MSH or a-MSH analogue • PBMC's, 10 ng LPS/mL, 10^−9M a-MSH or a-MSH analogue • PBMC's, 10 ng LPS/mL, 10^−7M a-MSH or a-MSH analogue
All samples are diluted from an initial stock solution between 1.4×10^−4M and 1.8×10^−3M. All solutions are handled in BSA coated vials in order to protect against binding of the compound to the surface of the vials.
Data is presented as mean±SE. The effect of test compounds on LPS induced TNF-a liberation is expressed as percentage of the TNF-a accumulation in the LPS-vehicle group. All comparisons are analysed with Student's unpaired t-test. Differences are considered significant at probability levels (p) of 0.05.

[2] = test system: LPS induced TNF-α in plasma; experiment: Inhibition of LPS induced TNFa production in rats in vivo (experimental setup 2); design: species or system rat; conditions: for dose at which the maximal inhibitory effect on TNF-a is achieved: doses 50, 200, 1000 μg/kg tested
Method: Inhibition of LPS Induced TNFa Production in Rats In Vivo
Experimental animals. Female Wistar rats (220-240 g) are obtained from the Charles River, Sulzfeld, Germany, and housed in a temperature- (22-24° C.) and moisture-controlled (40-70%) room with a 12 h light-dark cycle (light on from 6:00 A.M. to 6:00 P.M.). The rats are maintained on a standard rodent diet with 140 mmol/kg of sodium, 275 mmol/kg potassium and 23% protein (Altromin International, Lage, Germany) and have free access to water.
Animal preparation. […] After instrumentation, the animals are housed individually for 7-10 days until the day of the experiment.
Experimental protocol. Prior to the experiments all rats are adapted to the restraining cage used for the experiments by training them for two periods of two hours each. On the day of the experiment, the animal is transferred to a restraining cage, and an intravenous infusion of vehicle solution containing 150 mM glucose is started. The infusion rate is 0.5 ml/h throughout the experiment. After a short adaptation period, infusion of lipopolysaccharide (LPS) is started. LPS (E coli serotype 0127 B8, L 3129, Sigma, St. Louis, USA) is given at a dose of 4 mg/kg body weight delivered as an i.v. infusion over 1 hour. Arterial blood samples of 0.3 ml are taken 60, 90, and 120 minutes after start of the LPS infusion and replaced immediately with heparinized blood from a normal donor rat.
In addition to LPS infusion all rats are treated with a bolus injection of: • Vehicle (0.5 mL isotonic saline); • a-MSH in one of the following doses: 50 μg/kg bw; 200 μg/kg/bw or 1000 μg/kg bw; • Test compound in one of the following doses: 50 μg/kg bw; 200 μg/kg/bw or 1000 μg/kg bw.
Measurement of TNF-α in plasma: The blood samples are collected in a prechilled test tube with 0.5 mM EDTA, pH 7.4, and 20×10^6 IU/ml aprotinin. After centrifugation at 4° C., plasma samples are transferred to pre-chilled test tubes and stored at −20° C. for later measurements of TNF-α. TNF-α in plasma is determined by an ELISA (Biotrak, Amersham, UK).
Statistical analyses. Results are presented as means±SE. A two-way ANOVA for repeated measures is used to test for differences between groups. In case of P<0.05, the differences between corresponding periods are evaluated by unpaired t-tests with Bonferroni's correction of the level of significance.

| Substance | dose dependent reduction of LPS induced TNF-a accumulation [1] | inhibitory effect on TNF-a accumulation compared to native a-MSH [1] | reduction of TNF-a accumulation during iv infusion of LPS [2] | inhibitory effect on plasma TNF-a compared to native a-MSH ([2]; iv LPS infusion) | dose at which the maximal inhibitory effect on TNF-a is achieved ([2]; iv LPS infusion) | inhibitory effect on plasma TNF-a compared to native a-MSH ([2]; iv LPS infusion, listed as SEQ ID NO: 2*) | reduction of TNF-a accumulation during iv infusion of LPS ([2]; listed as SEQ ID NO: 2*) | inhibitory effect on plasma TNF-a compared to native a-MSH ([2]; iv LPS infusion, listed as SEQ ID NO: 17*) | reduction of TNF-a accumulation during iv infusion of LPS ([2]; listed as SEQ ID NO: 17*) | TNF-a concentration in plasma, % of the maximal response (LPS-Vehicle) ([2]; iv LPS infusion, 200 μg/kg body weight iv, 120 minutes after initiation of LPS infusion) | inhibitory effect on plasma TNF-a compared to native a-MSH ([2]; iv LPS infusion, listed as SEQ ID NO: 13*) | reduction of TNF-a accumulation during iv infusion of LPS ([2]; listed as SEQ ID NO: 13*) | inhibitory effect on plasma TNF-a compared to native a-MSH ([2]; iv LPS infusion, listed as SEQ ID NO: 3*) | reduction of TNF-a accumulation during iv infusion of LPS ([2]; listed as SEQ ID NO: 3*) |
| --- | --- | --- | --- | --- | --- | --- | --- | --- | --- | --- | --- | --- | --- | --- |
| Ac-Glu-Glu-Glu-Glu-Glu-Glu-Ser-Tyr-Ser-Met-Glu-His-Phe-Arg-Trp-Gly-Lys-Pro-Val-NH2 (Ac-EEEEEESYSMEHFRWGKPV-NH2) [a-MSH analogue #6] | dose dependently reduce | markedly more pronounced | reduce TNF-a accumulation | markedly more pronounced | 200 μg/kg body weight | higher degree | significantly inhibit |  |  |  |  |  |  |  |
| Ac-Lys-Lys-Lys-Lys-Lys-Lys-Ser-Ser-Ile-Ile-Ser-His-(D-Phe)-Arg-Trp-Gly-Lys-Pro-Val-NH2 (KKKKKKSSIISHFRWGKPV; HELM PEPTIDE1{[ac].K.K.K.K.K.K.S.S.I.I.S.H.[dF].R.W.G.K.P.V.[am]}$$$$V2.0; SMILES CC[C@H](C)[C@H](NC(=O)[C@H](CO)NC(=O)[C@H](CO)NC(=O)[C@H](CCCCN)NC(=O)[C@H](CCCCN)NC(=O)[C@H](CCCCN)NC(=O)[C@H](CCCCN)NC(=O)[C@H](CCCCN)NC(=O)[C@H](CCCCN)NC(C)=O)C(=O)N[C@H](C(=O)N[C@@H](CO)C(=O)N[C@@H](Cc1c[nH]cn1)C(=O)N[C@H](Cc1ccccc1)C(=O)N[C@@H](CCCNC(=N)N)C(=O)N[C@@H](Cc1c[nH]c2ccccc12)C(=O)NCC(=O)N[C@@H](CCCCN)C(=O)N1CCC[C@H]1C(=O)N[C@H](C(N)=O)C(C)C)[C@@H](C)CC) [a-MSH analogue #5] | dose dependently reduce | markedly more pronounced | reduce TNF-a accumulation | markedly more pronounced | 200 μg/kg body weight |  |  | higher degree | significantly inhibit |  |  |  |  |  |
| Ac-Lys-Lys-Lys-Lys-Lys-Lys-Ser-Ser-Ile-Ile-Ser-His-Phe-Arg-Trp-Gly-Lys-Pro-Val-NH2 (Ac-KKKKKKSSIISHFRWGKPV-NH2) [a-MSH analogue #4] | dose dependently reduce | markedly more pronounced | reduce TNF-a accumulation | markedly more pronounced | 200 μg/kg body weight |  |  |  |  | 12±2% | higher degree | significantly inhibit |  |  |
| Ac-Lys-Lys-Lys-Lys-Lys-Lys-Ser-Tyr-Ser-Met-Glu-His-Phe-Arg-Trp-Gly-Lys-Pro-(D-Val)-NH2 (KKKKKKSYSMEHFRWGKPV; HELM PEPTIDE1{[ac].K.K.K.K.K.K.S.Y.S.M.E.H.F.R.W.G.K.P.[dV].[am]}$$$$V2.0; SMILES CSCC[C@H](NC(=O)[C@H](CO)NC(=O)[C@H](Cc1ccc(O)cc1)NC(=O)[C@H](CO)NC(=O)[C@H](CCCCN)NC(=O)[C@H](CCCCN)NC(=O)[C@H](CCCCN)NC(=O)[C@H](CCCCN)NC(=O)[C@H](CCCCN)NC(=O)[C@H](CCCCN)NC(C)=O)C(=O)N[C@@H](CCC(=O)O)C(=O)N[C@@H](Cc1c[nH]cn1)C(=O)N[C@@H](Cc1ccccc1)C(=O)N[C@@H](CCCNC(=N)N)C(=O)N[C@@H](Cc1c[nH]c2ccccc12)C(=O)NCC(=O)N[C@@H](CCCCN)C(=O)N1CCC[C@H]1C(=O)N[C@@H](C(N)=O)C(C)C) [a-MSH analogue #7] | dose dependently reduce | markedly more pronounced | reduce TNF-α accumulation | markedly more pronounced | 200 μg/kg body weight |  |  |  |  |  |  |  | higher degree | significantly inhibit |
